Results from patent US5840684A, “Glycopeptide antibiotic derivatives” (Eli Lilly and Company, priority 1995, dated 1998).
In brackets after ≈: the same amount, converted by molar mass. Several values for one entry are separate records, joined by “and”; a condition that tells them apart may be missing. Identical values can stand only once.

Key:
[1] = system: vancomycin-resistant enterococci; assay: broth micro-dilution, mean geometric MIC; assay type: cell-based, Enterococcus faecium and Enterococcus faecalis; conditions: enterococci, 24-hour incubation
[2] = system: Streptococcus pneumoniae; assay: mouse protection, experimentally-induced infection; assay type: in vivo; conditions: mice infected with Streptococcus pneumoniae, two doses
[3] = system: vancomycin-susceptible enterococci; assay: broth micro-dilution, mean geometric MIC; assay type: cell-based, Enterococcus faecium and Enterococcus faecalis; conditions: enterococci, 24-hour incubation
[4] = system: Streptococcus pyogenes; assay: mouse protection, experimentally-induced infection; assay type: in vivo; conditions: mice infected with Streptococcus pyogenes, two doses
[5] = system: Staphylococcus aureus SA1199; assay: broth micro-dilution MIC; assay type: cell-based
Procedure: (§1) The MIC's were determined using a standard broth micro-dilution assay.

[6] = system: Staphylococcus aureus 447; assay: broth micro-dilution MIC; assay type: cell-based
Procedure: as §1

[7] = system: Entercoccus faecium 180-1; assay: broth micro-dilution MIC; assay type: cell-based
Procedure: as §1

[8] = system: Entercoccus faecium 276; assay: broth micro-dilution MIC; assay type: cell-based
Procedure: as §1

[9] = system: Staphylococcus aureus X778; assay: broth micro-dilution MIC; assay type: cell-based
Procedure: as §1

[10] = system: Staphylococcus aureus SA1199A; assay: broth micro-dilution MIC; assay type: cell-based
Procedure: as §1

[11] = system: Staphylococcus aureus S13E; assay type: cell-based
Procedure: as §1

[12] = system: Staphylococcus haemolyticus 415; assay: broth micro-dilution MIC; assay type: cell-based
Procedure: (§2) The formula I compounds have in vitro and in vivo activity against Gram-positive pathogenic bacteria. The MIC's were determined using a standard broth micro-dilution assay.

[13] = system: Staphylococcus epidermidis 270; assay: broth micro-dilution MIC; assay type: cell-based
Procedure: as §2

[14] = system: Streptococcus pneumoniae P1; assay: broth micro-dilution MIC; assay type: cell-based
Procedure: as §2

[15] = system: Entercoccus faecium 2041; assay: broth micro-dilution MIC; assay type: cell-based; conditions: Entercoccus faecium 2041
Procedure: as §2

[16] = system: Enterococcus gallinarum 245; assay: broth micro-dilution MIC; assay type: cell-based; conditions: Enterococcus gallinarum 245
Procedure: as §2

[17] = system: Staphylococcus aureus X400; assay: broth micro-dilution MIC; assay type: cell-based
Procedure: as §1

[18] = system: Streptococcus pyogenes C203; assay: broth micro-dilution MIC; assay type: cell-based
Procedure: as §1

[19] = system: Staphylococcus aureus 446; assay: broth micro-dilution MIC; assay type: cell-based
Procedure: as §1

[20] = system: Staphylococcus aureus SA1199B; assay type: cell-based
Procedure: as §1

[21] = system: Staphylococcus haemolyticus 105; assay: broth micro-dilution MIC; assay type: cell-based
Procedure: as §2

[22] = system: Entercoccus faecium 180; assay: broth micro-dilution MIC; assay type: cell-based; conditions: Entercoccus faecium 180
Procedure: as §2

[23] = system: Staphylococcus aureus 489; assay: broth micro-dilution MIC; assay type: cell-based
Procedure: as §1

SMILES	mean geometric MIC, Vancomycin Resistant Strains [1] [µg/mL]	ED50 [2] [mg/kg/2]	mean geometric MIC, Vancomycin Sensitive Strains [3] [µg/mL]	ED50 [4] [mg/kg/2]	MIC [5] [µg/mL]	MIC [6] [µg/mL]	MIC [7] [µg/mL]	MIC [9] [µg/mL]	MIC [10]	MIC [11] [µg/mL]	MIC [12]	MIC [13]	MIC [14] [µg/mL]	MIC [15] [µg/mL]	MIC [16] [µg/mL]	MIC [17] [µg/mL]	MIC [18] [µg/mL]	MIC [20]	MIC [21] [µg/mL]	MIC [22] [µg/mL]	other results
CNC(CC(C)C)C(=O)NC1C(=O)NC(CC(N)=O)C(=O)NC2C(=O)NC3C(=O)NC(C(=O)NC(C(=O)O)c4cc(O)cc(O)c4-c4cc3ccc4O)C(OC3CC(C)(N)C(O)C(C)O3)c3ccc(c(Cl)c3)Oc3cc2cc(c3OC2OC(CO)C(O)C(O)C2OC2CC(C)(NCc3ccc(C(c4ccccc4)c4ccccc4)cc3)C(O)C(C)O2)Oc2ccc(cc2Cl)C1O (centres unmarked) [Compound 46]	0.71	0.156	0.50	0.378	–	–	–	–	–	–	–	–	–	–	–	–	–	–	–	–	–
CNC(CC(C)C)C(=O)NC1C(=O)NC(CC(N)=O)C(=O)NC2C(=O)NC3C(=O)NC(C(=O)NC(C(=O)O)c4cc(O)cc(O)c4-c4cc3ccc4O)C(OC3CC(C)(N)C(O)C(C)O3)c3ccc(c(Cl)c3)Oc3cc2cc(c3OC2OC(CO)C(O)C(O)C2OC2CC(C)(NCc3ccc(-c4ccc([N+](=O)[O-])cc4)cc3)C(O)C(C)O2)Oc2ccc(cc2Cl)C1O (centres unmarked) [Compound 64]	0.71	< 0.031	0.077	0.044	1 (≈ 0.554 µM)	0.5 (≈ 0.277 µM)	≤ 0.06	2 (≈ 1.11 µM)	≤ 0.06 µg/mL	2 (≈ 1.11 µM)	2 µg/mL (≈ 1.11 µM)	0.5 µg/mL (≈ 0.277 µM)	≤ 0.06	≤ 0.06	2 (≈ 1.11 µM)	–	–	–	–	–	MIC [8]: 0.5 µg/mL (≈ 0.277 µM)
CN[C@H](CC(C)C)C(=O)N[C@H]1C(=O)N[C@@H](CC(N)=O)C(=O)N[C@H]2C(=O)N[C@H]3C(=O)N[C@H](C(=O)N[C@H](C(=O)O)c4cc(O)cc(O)c4-c4cc3ccc4O)[C@H](O[C@H]3C[C@](C)(N)[C@@H](O)[C@H](C)O3)c3ccc(c(Cl)c3)Oc3cc2cc(c3O[C@@H]2O[C@H](CO)[C@@H](O)[C@H](O)[C@H]2O[C@H]2C[C@](C)(NCc3ccc(OCc4ccc(Cl)cc4)cc3)[C@@H](O)[C@H](C)O2)Oc2ccc(cc2Cl)[C@H]1O [Compound 93]	0.42	0.012	0.042	0.074	2 (≈ 1.1 µM)	–	≤ 0.06	1 (≈ 0.549 µM)	≤ 0.06 µg/mL	1 (≈ 0.549 µM)	1 µg/mL (≈ 0.549 µM)	1 µg/mL (≈ 0.549 µM)	≤ 0.06	≤ 0.06	1 (≈ 0.549 µM)	≤ 0.06	≤ 0.06	1 µg/mL (≈ 0.549 µM)	1 (≈ 0.549 µM)	≤ 0.06	MIC [19]: 2 µg/mL (≈ 1.1 µM)
CNC(CC(C)C)C(=O)NC1C(=O)NC(CC(N)=O)C(=O)NC2C(=O)NC3C(=O)NC(C(=O)NC(C(=O)O)c4cc(O)cc(O)c4-c4cc3ccc4O)C(OC3CC(C)(N)C(O)C(C)O3)c3ccc(c(Cl)c3)Oc3cc2cc(c3OC2OC(CO)C(O)C(O)C2OC2CC(C)(NCc3ccc(CCc4ccccc4)cc3)C(O)C(C)O2)Oc2ccc(cc2Cl)C1O (centres unmarked) [Compound 100]	0.71	0.046	0.042	0.062	–	–	≤ 0.06	–	–	–	2 µg/mL and 4 µg/mL	0.5 µg/mL and 0.25 µg/mL	≤ 0.06	≤ 0.06	2 (≈ 1.12 µM)	–	≤ 0.06	0.5 µg/mL (≈ 0.28 µM)	1 (≈ 0.56 µM)	0.25 (≈ 0.14 µM)	MIC [19]: 1 µg/mL (≈ 0.56 µM)
CCOc1cc(CNC2(C)CC(OC3C(Oc4c5cc6cc4Oc4ccc(cc4Cl)C(OC4CC(C)(N)C(O)C(C)O4)C4NC(=O)C(NC(=O)C6NC(=O)C(CC(N)=O)NC(=O)C(NC(=O)C(CC(C)C)NC)C(O)c6ccc(c(Cl)c6)O5)c5ccc(O)c(c5)-c5c(O)cc(O)cc5C(C(=O)O)NC4=O)OC(CO)C(O)C3O)OC(C)C2O)ccc1OCC1CCCCC1 (centres unmarked) [Compound 105]	0.84	0.041	0.062	0.12	1 (≈ 0.544 µM)	0.5 (≈ 0.272 µM)	≤ 0.06	0.5 (≈ 0.272 µM)	–	0.5 (≈ 0.272 µM)	1 µg/mL (≈ 0.544 µM)	–	≤ 0.06	–	1 (≈ 0.544 µM)	0.5 (≈ 0.272 µM)	≤ 0.06	0.5 µg/mL (≈ 0.272 µM)	1 (≈ 0.544 µM)	–	MIC [23]: 0.5 µg/mL (≈ 0.272 µM)
CNC(CC(C)C)C(=O)NC1C(=O)NC(CC(N)=O)C(=O)NC2C(=O)NC3C(=O)NC(C(=O)NC(C(=O)O)c4cc(O)cc(O)c4-c4cc3ccc4O)C(OC3CC(C)(N)C(O)C(C)O3)c3ccc(c(Cl)c3)Oc3cc2cc(c3OC2OC(CO)C(O)C(O)C2OC2CC(C)(NCc3ccc(OCc4ccc([N+](=O)[O-])cc4)cc3)C(O)C(C)O2)Oc2ccc(cc2Cl)C1O (centres unmarked) [Compound 131]	0.84	0.077	0.028	< 0.031	–	1 (≈ 0.545 µM)	≤ 0.06	0.5 (≈ 0.273 µM)	≤ 0.06 µg/mL	1 (≈ 0.545 µM)	2 µg/mL (≈ 1.09 µM)	1 µg/mL (≈ 0.545 µM)	≤ 0.06	≤ 0.06	2 (≈ 1.09 µM)	1 (≈ 0.545 µM)	≤ 0.06	1 µg/mL (≈ 0.545 µM)	1 (≈ 0.545 µM)	≤ 0.06	MIC [19]: 2 µg/mL (≈ 1.09 µM); MIC [23]: 1 µg/mL (≈ 0.545 µM)
CNC(CC(C)C)C(=O)NC1C(=O)NC(CC(N)=O)C(=O)NC2C(=O)NC3C(=O)NC(C(=O)NC(C(=O)O)c4cc(O)cc(O)c4-c4cc3ccc4O)C(OC3CC(C)(N)C(O)C(C)O3)c3ccc(c(Cl)c3)Oc3cc2cc(c3OC2OC(CO)C(O)C(O)C2OC2CC(C)(NCc3ccc(-c4ccc(F)cc4)cc3)C(O)C(C)O2)Oc2ccc(cc2Cl)C1O (centres unmarked) [Compound 211]	0.35	0.041	0.024	< 0.031	0.5 (≈ 0.281 µM)	0.5 (≈ 0.281 µM)	≤ 0.06	1 (≈ 0.563 µM)	–	0.5 (≈ 0.281 µM)	0.5 µg/mL (≈ 0.281 µM)	0.5 µg/mL (≈ 0.281 µM)	≤ 0.06	≤ 0.06	≤ 0.06	0.5 (≈ 0.281 µM)	≤ 0.06	1 µg/mL (≈ 0.563 µM)	0.5 (≈ 0.281 µM)	≤ 0.06	MIC [19]: 1 µg/mL (≈ 0.563 µM); MIC [8]: ≤ 0.06 µg/mL
CN[C@H](CC(C)C)C(=O)N[C@H]1C(=O)N[C@@H](CC(N)=O)C(=O)N[C@H]2C(=O)N[C@H]3C(=O)N[C@H](C(=O)N[C@H](C(=O)O)c4cc(O)cc(O)c4-c4cc3ccc4O)[C@H](O[C@H]3C[C@](C)(N)[C@@H](O)[C@H](C)O3)c3ccc(cc3)Oc3cc2cc(c3O[C@@H]2O[C@H](CO)[C@@H](O)[C@H](O)[C@H]2O[C@H]2C[C@](C)(N)[C@@H](O)[C@H](C)O2)Oc2ccc(cc2Cl)[C@H]1O [Compound A82846A, A82846A, reference compound]	–	0.39	1.7	0.084	0.125 (≈ 0.0802 µM)	–	0.125 (≈ 0.0802 µM)	0.125 (≈ 0.0802 µM)	≤ .06 µg/mL	0.125 (≈ 0.0802 µM)	1 µg/mL (≈ 0.642 µM)	–	–	0.125 (≈ 0.0802 µM)	0.125 (≈ 0.0802 µM)	0.125 (≈ 0.0802 µM)	–	≤ .06 µg/mL	0.5 (≈ 0.321 µM)	16 (≈ 10.3 µM)	MIC [8]: 0.125 µg/mL (≈ 0.0802 µM); MIC [23]: 0.5 µg/mL (≈ 0.321 µM)
